Measured values reported in ChEMBL document CHEMBL1152855, “Regioselective synthesis of dispiro[1H-indene-2,3'-pyrrolidine-2',3''-[3H]indole]-1,2''(1''H)-diones of potential anti-tumor properties” (2009).

Key:
Format in all cases: functional
[1] = system: SK-MEL-28; assay: Growth inhibition of human SK-MEL-28 cells at 10 uM after 48 hrs by sulforhodamine B assay; conditions: SK-MEL-28, 48 h, values are per cent of control
[2] = system: K562; assay: Growth inhibition of human K562 cells at 10 uM after 48 hrs by sulforhodamine B assay; conditions: K562, 48 h, values are per cent of control
[3] = system: SF-295; assay: Growth inhibition of human SF295 cells at 10 uM after 48 hrs by sulforhodamine B assay; conditions: SF-295, 48 h, values are per cent of control
[4] = system: MDA-MB-435; assay: Growth inhibition of human MDA-MB-435 cells at 10 uM after 48 hrs by sulforhodamine B assay; conditions: MDA-MB-435, 48 h, values are per cent of control
[5] = system: OVCAR-4; assay: Growth inhibition of human OVCAR4 cells at 10 uM after 48 hrs by sulforhodamine B assay; conditions: OVCAR-4, 48 h, values are per cent of control
[6] = system: HOP-62; assay: Growth inhibition of human HOP62 cells at 10 uM after 48 hrs by sulforhodamine B assay; conditions: HOP-62, 48 h, values are per cent of control
[7] = system: SNB-75; assay: Growth inhibition of human SNB75 cells at 10 uM after 48 hrs by sulforhodamine B assay; conditions: SNB-75, 48 h, values are per cent of control
[8] = system: HOP-92; assay: Growth inhibition of human HOP92 cells at 10 uM after 48 hrs by sulforhodamine B assay; conditions: HOP-92, 48 h, read-out: GI
[9] = system: NCI-H522; assay: Growth inhibition of human NCI-H522 cells at 10 uM after 48 hrs by sulforhodamine B assay; conditions: NCI-H522, 48 h, values are per cent of control
[10] = system: RPMI-8226; assay: Growth inhibition of human RPMI8226 cells at 10 uM after 48 hrs by sulforhodamine B assay; conditions: RPMI-8226, 48 h, read-out: GI
[11] = system: UACC-257; assay: Growth inhibition of human UACC257 cells at 10 uM after 48 hrs by sulforhodamine B assay; conditions: UACC-257, 48 h, values are per cent of control
[12] = system: SF-539; assay: Growth inhibition of human SF539 cells at 10 uM after 48 hrs by sulforhodamine B assay; conditions: SF-539, 48 h, values are per cent of control
[13] = system: OVCAR-5; assay: Growth inhibition of human OVCAR5 cells at 10 uM after 48 hrs by sulforhodamine B assay; conditions: OVCAR-5, 48 h, values are per cent of control
[14] = system: KM12; assay: Growth inhibition of human KM12 cells at 10 uM after 48 hrs by sulforhodamine B assay; conditions: KM12, 48 h, values are per cent of control
[15] = Growth inhibition of human Hs 578T cells at 10 uM after 48 hrs by sulforhodamine B assay; conditions: values are per cent of control
[16] = system: Rattus norvegicus; assay: Antiinflammatory activity against carrageenan-induced paw edema in Wister albino rat assessed as inhibition of edema at 50 mg/kg, ip administered 1 hr prior to carrageenan challenge measured after 1 hr relative to control; conditions: route intraperitoneal
[17] = system: U-251; assay: Growth inhibition of human U251 cells at 10 uM after 48 hrs by sulforhodamine B assay; conditions: U-251, 48 h, values are per cent of control
[18] = system: Rattus norvegicus; assay: Antiinflammatory activity against carrageenan-induced paw edema in Wister albino rat assessed as inhibition of edema at 50 mg/kg, ip administered 1 hr prior to carrageenan challenge measured after 3 hrs relative to control; conditions: route intraperitoneal
[19] = system: Malme-3M; assay: Growth inhibition of human MALME-3M cells at 10 uM after 48 hrs by sulforhodamine B assay; conditions: values are per cent of control
[20] = system: MDA-MB-231; assay: Growth inhibition of human MDA-MB-231 cells at 10 uM after 48 hrs by sulforhodamine B assay; conditions: MDA-MB-231, 48 h, values are per cent of control
[21] = system: Rattus norvegicus; assay: Antiinflammatory activity against carrageenan-induced paw edema in Wister albino rat assessed as inhibition of edema at 50 mg/kg, ip administered 1 hr prior to carrageenan challenge measured after 4 hrs relative to control; conditions: route intraperitoneal
[22] = system: NCI-H322M; assay: Growth inhibition of human NCI-H322M cells at 10 uM after 48 hrs by sulforhodamine B assay; conditions: values are per cent of control
[23] = system: SK-MEL-2; assay: Growth inhibition of human SK-MEL-2 cells at 10 uM after 48 hrs by sulforhodamine B assay; conditions: SK-MEL-2, 48 h, read-out: GI
[24] = system: UACC-62; assay: Growth inhibition of human UACC62 cells at 10 uM after 48 hrs by sulforhodamine B assay; conditions: UACC-62, 48 h, values are per cent of control
[25] = system: HT-29; assay: Growth inhibition of human HT-29 cells at 10 uM after 48 hrs by sulforhodamine B assay; conditions: HT-29, 48 h, values are per cent of control
[26] = system: A498; assay: Growth inhibition of human A498 cells at 10 uM after 48 hrs by sulforhodamine B assay; conditions: A498, 48 h, values are per cent of control
[27] = system: HCT-116; assay: Growth inhibition of human HCT116 cells at 10 uM after 48 hrs by sulforhodamine B assay; conditions: HCT-116, 48 h, values are per cent of control
[28] = system: MCF7; assay: Growth inhibition of human MCF7 cells at 10 uM after 48 hrs by sulforhodamine B assay; conditions: MCF7, 48 h, values are per cent of control
[29] = system: CAKI-1; assay: Growth inhibition of human Caki1 cells at 10 uM after 48 hrs by sulforhodamine B assay; conditions: CAKI-1, 48 h, values are per cent of control
[30] = system: ACHN; assay: Growth inhibition of human ACHN cells at 10 uM after 48 hrs by sulforhodamine B assay; conditions: values are per cent of control
[31] = system: 786-0; assay: Growth inhibition of human 786-0 cells at 10 uM after 48 hrs by sulforhodamine B assay; conditions: 786-0, 48 h, values are per cent of control
[32] = system: PC-3; assay: Growth inhibition of human PC3 cells at 10 uM after 48 hrs by sulforhodamine B assay; conditions: PC-3, 48 h, values are per cent of control
[33] = system: LOX IMVI; assay: Growth inhibition of human LOXIMVI cells at 10 uM after 48 hrs by sulforhodamine B assay; conditions: values are per cent of control
[34] = system: CCRF-CEM; assay: Growth inhibition of human CCRF-CEM cells at 10 uM after 48 hrs by sulforhodamine B assay; conditions: values are per cent of control
[35] = system: SN12C; assay: Growth inhibition of human SN12C cells at 10 uM after 48 hrs by sulforhodamine B assay; conditions: values are per cent of control
[36] = system: HCT-15; assay: Growth inhibition of human HCT15 cells at 10 uM after 48 hrs by sulforhodamine B assay; conditions: HCT-15, 48 h, values are per cent of control
[37] = system: NCI-H460; assay: Growth inhibition of human NCI-H460 cells at 10 uM after 48 hrs by sulforhodamine B assay; conditions: NCI-H460, 48 h, values are per cent of control
[38] = system: OVCAR-8; assay: Growth inhibition of human OVCAR8 cells at 10 uM after 48 hrs by sulforhodamine B assay; conditions: OVCAR-8, 48 h, read-out: GI

Row | Structure (SMILES) | growth, % of control at 10 µM [1] [%] | growth, % of control at 10 µM [2] [%] | growth, % of control at 10 µM [3] [%] | growth, % of control at 10 µM [4] [%] | growth, % of control at 10 µM [5] [%] | growth, % of control at 10 µM [6] [%] | growth, % of control at 10 µM [7] [%] | inhibition of growth at 10 µM [8] [%] | growth, % of control at 10 µM [9] [%] | inhibition of growth at 10 µM [10] [%] | growth, % of control at 10 µM [11] [%] | growth, % of control at 10 µM [12] [%] | growth, % of control at 10 µM [13] [%] | growth, % of control at 10 µM [14] [%] | growth, % of control at 10 µM [15] [%] | inhibition in vivo at 50 mg/kg [16] [%] | growth, % of control at 10 µM [17] [%] | inhibition in vivo at 50 mg/kg [18] [%] | growth, % of control at 10 µM [19] [%] | growth, % of control at 10 µM [20] [%] | further results
1 | [3H]C([3H])([3H])N1C(=O)[C@@]2(c3ccccc31)N(C)C[C@@H](c1ccc(OC)cc1)[C@@]21Cc2ccccc2C1=O | 101 | 85.2 | 89.1 | 101 | 78.8 | 88.2 | 79 | 47.1 | 87 | 17.7 | 88.7 | 99.9 | 97.7 | 98.2 | -4.27 | 46.9 | 88.4 | 3.3 | 104 | 94.3 | inhibition in vivo at 50 mg/kg [21]: 3.8%; growth, % of control at 10 µM [22]: 124%; inhibition of growth at 10 µM [23]: -6.92%; growth, % of control at 10 µM [24]: 63.1%; growth, % of control at 10 µM [25]: 66.9%; growth, % of control at 10 µM [26]: 95.2%; growth, % of control at 10 µM [27]: 59.8%; growth, % of control at 10 µM [28]: 100%; growth, % of control at 10 µM [29]: 91.1%; growth, % of control at 10 µM [30]: 82.8%; growth, % of control at 10 µM [31]: 88%; growth, % of control at 10 µM [32]: 58.4%; growth, % of control at 10 µM [33]: 78.5%; growth, % of control at 10 µM [34]: 72.1%; growth, % of control at 10 µM [35]: 89.1%; growth, % of control at 10 µM [36]: 89.1%; growth, % of control at 10 µM [37]: 95.4%; inhibition of growth at 10 µM [38]: 83.8%
2 | [3H]N1C(=O)[C@@]2(c3ccccc31)N(C)C[C@@H](c1ccc(Cl)cc1)[C@@]21Cc2ccccc2C1=O | 112 | 58.5 | 31.4 | 95.1 | 74.5 | 87.5 | 61.1 | 50.2 | 73.9 | 36.6 | 34.5 | 107 | 93.2 | 81.2 | -4.92 | 27.9 | 87.7 | 18.9 | 120 | 75.1 | inhibition in vivo at 50 mg/kg [21]: 15.6%; growth, % of control at 10 µM [22]: 104%; inhibition of growth at 10 µM [23]: -6.14%; growth, % of control at 10 µM [24]: 45.8%; growth, % of control at 10 µM [25]: 73.8%; growth, % of control at 10 µM [26]: 61.9%; growth, % of control at 10 µM [27]: 54.6%; growth, % of control at 10 µM [28]: 109%; growth, % of control at 10 µM [29]: 80%; growth, % of control at 10 µM [30]: 80.5%; growth, % of control at 10 µM [31]: 88.9%; growth, % of control at 10 µM [32]: 36.5%; growth, % of control at 10 µM [33]: 65.2%; growth, % of control at 10 µM [34]: 74.7%; growth, % of control at 10 µM [35]: 79.5%; growth, % of control at 10 µM [36]: 82.5%; growth, % of control at 10 µM [37]: 94.7%; inhibition of growth at 10 µM [38]: 69.2%
